From US6657105B2 (Riken, priority 2000, dated 2003)

Tested on: Or-Prnp transgenic mice
Conditions: mouse, in vivo, 4 mg/kg

CN1[C@@H]2CC[C@H]1C[C@@H](OC(=O)C(CO)c1ccccc1)C2 (stereo partly shown) [atropine]
abnormal waves in electrocardiogram after administration of heart stimulant: only Or-Prnp transgenic mice showed the abnormal waves in electrocardiogram
